Key:
Assay type in all cases: cell-based
SV 40 = experiment: Inactivation of SV 40 in human blood plasma by pressure cycling and DNase (plaque assay on primate cells)
[1] = test system: Feline rhinotrachetis virus; experiment: Inactivation of feline rhinotrachetis virus in human blood plasma by pressure and HMT with UV (plaque assay on feline cells Fc3Tg)
Experimental: The infectivity of the virus suspension is determined by duplicate plaque assays on cultured feline cells, Fc3Tg (ATCC CCL 176) with a methylcellulose overlay. The sample is split into four aliquots and are treated as follows: 1) aliquot 1—no treatment; […] 4) aliquot 4—nothing added and pressurized to 30,000 psi for 10 minutes. All samples are held at a temperature of 25° C. throughout the experiment. After treatment, the plasma is serially diluted, mixed with cultured feline cells and plated on agar.

[2] = test system: Feline rhinotrachetis virus; experiment: Inactivation of feline rhinotrachetis virus in human blood plasma by pressure cycling and S-59 with UV (plaque assay on feline cells)
bacteriophage MS2 [3] = experiment: Inactivation of bacteriophage MS2 in human blood plasma by pressure cycling and 1-(2-aminoethyl)aziridine (plaque assay on E. coli)
bacteriophage MS2 [4] = experiment: Inactivation of bacteriophage MS2 in human blood plasma by pressure and RNase (plaque assay on E. coli)

Molecule: DNase
- reduction in viral titer, combination with pressure cycling versus sum of the reductions of the single treatments (SV 40; 20 μg/ml DNase I, 90,000 psi for 10 minutes, 25 cycles, 37° C., human blood plasma, 10^8 pfu per ml SV 40): significantly greater reduction in viral titer
- viral inactivation under pressure cycling at lower concentrations (SV 40; similar experiments with lower concentrations of DNase, with pressure cycling): equivalent viral inactivation with lower concentrations of DNase or with shorter incubation time

Molecule: Cc1oc2c(C)c3oc(=O)cc(C)c3cc2c1CO [HMT, 4′-hydroxymethyl-4,5′,8-trimethylpsoralen]
- reduction in viral titer, combination with pressure versus sum of the reductions of the single treatments ([1]; 20 μg/ml HMT, 30,000 psi for 10 minutes, then longwave UV light (320 to 380 nm) 10 minutes, 25° C., human blood plasma, 2×10^7 pfu per ml): significantly greater reduction in viral titer
- viral inactivation under pressure at lower concentrations ([1]; similar experiments with lower concentrations of HMT, with pressure): equivalent viral inactivation with lower concentrations

Molecule: Cc1oc2c(C)c3oc(=O)cc(C)c3cc2c1COCCN [S-59, 4′-(4-amino-2-oxa)butyl-4,5′,8-trimethylpsoralen]
- reduction in viral titer, combination with pressure cycling versus sum of the reductions of the single treatments ([2]; 150 μM S-59, longwave UV light 10 minutes, 90,000 psi for 5 minutes, 24 cycles, then UV ten minutes, 25° C., human blood plasma, 2×10^7 pfu per ml): significantly greater reduction in viral titer
- viral inactivation under pressure cycling at lower concentrations ([2]; similar experiments with lower concentrations of S-59, with pressure cycling): equivalent viral inactivation with lower concentrations

Molecule: NCCN1CC1 [1-(2-aminoethyl)aziridine]
- reduction in viral titer, combination with pressure cycling versus sum of the reductions of the single treatments (bacteriophage MS2 [3]; 0.007 M 1-(2-aminoethyl)aziridine, 80,000 psi for 10 minutes, 20 cycles, 25° C., human blood plasma, 10^8 pfu per ml MS2): significantly greater reduction in viral titer
- viral inactivation under pressure cycling at lower concentrations (bacteriophage MS2 [3]; similar experiments with lower concentrations of 1-(2-aminoethyl)aziridine, with pressure cycling): equivalent viral inactivation with lower concentrations of 1-(2-aminoethyl)aziridine or with shorter incubation time

B1: RNase: ribonuclease, enzyme that hydrolyzes RNA; RNase A used at 10 μg/ml (protein, UniProt P61823 27-150, looked up)
Ribonuclease pancreatic: KETAAAKFERQHMDSSTSAASSSNYCNQMMKSRNLTKDRCKPVNTFVHESLADVQAVCSQKNVACKNGQTNCYQSYSTMSITDCRETGSSKYPNCAYKTTQANKHIIVACEGNPYVPVHFDASV
- reduction in viral titer, combination with pressure versus sum of the reductions of the single treatments (bacteriophage MS2 [4]; 10 μg/ml RNase A, 25,000 psi for 20 minutes, 37° C., human blood plasma, 10^8 pfu per ml MS2): significantly greater reduction in viral titer
- viral inactivation under pressure at lower concentrations (bacteriophage MS2 [4]; similar experiments with lower concentrations of RNase, with pressure): equivalent viral inactivation with lower concentrations of RNase or with shorter incubation time

From patent US20020015937A1, “Methods for inactivating viruses” (priority 2000, published 2002)
